The nature of assay [1]: Plasma TG lowering effect in rats after 14 days repeated oral administration, blood taken after 22-hours fasting. The format is in vivo, Wistar rat. The following applies: single agent alone, rat, pitavastatin calcium 10 mg/kg, K-134 or cilostazol 100 mg/kg. An excerpt:
To test effects of combination administration of the said agents, rats were used for the experiment. […] The vertical axis in FIG. 1 indicates concentration of plasma triglyceride (TG) (mg/dL). Administration groups: control; pitavastatin calcium (referred to as pitavastatin) alone; K-134 alone; cilostazol alone; combination of pitavastatin calcium (referred to as pitavastatin) and K-134; and combination of pitavastatin calcium (referred to as pitavastatin) and cilostazol, are listed from left to right.
Plasma TG lowering effect when pitavastatin calcium was administered in combination with K-134 or cilostazol was measured according to the following method 1-4.
A 7-week-old Wistar rat (CLEA Japan, Inc.) was housed in an animal room where light/dark cycle (light period with room lighting from 7.00 to 19.00), temperature of 23±3° C., and humidity of 55±15% were maintained through the experimental period, and solid feed (CLEA Japan, Inc.) and tap water were consumed freely.
Pitavastatin calcium, K-134 and cilostazol were each suspended in aqueous solution (1.0 mass %) of hydroxypropyl methyl cellulose (Shin-Etsu Chemical Co., Ltd.) and prepared in order that the administration dose was 1 mL/kg. The suspension was stored in a colored bottle and refrigerated at 4° C. Preparation was performed every seven days.
3. Test Method 36 rats were divided into 6 administration groups (each group consisted of 6 samples): (1) control; (2) pitavastatin calcium (10 mg/kg) alone; (3) K-134 (100 mg/kg) alone; (4) cilostazol (100 mg/kg) alone; (5) combination of pitavastatin calcium (10 mg/kg) and K-134 (100 mg/kg); and (6) combination of pitavastatin calcium (10 mg/kg) and cilostazol(100 mg/kg).
Pitavastatin was orally administered once daily at 4.00 pm for 14 days repeatedly, and K-134 or cilostazol was orally administered twice daily at 9.00 am and 4.00 pm for 14 days repeatedly. […] Blood sample was taken from each group after 22-hours fasting following the final administration in the afternoon, and plasma TG was measured. […]

For assay [2] the following is noted: normal rat; cited from earlier work.
For assay [3] the following is noted: diabetic rat; cited from earlier work.
For assay [4] the following is noted: clinical report, cited from earlier work.

The source of these data is US20150272944A1, “NOVEL TRIGLYCERIDE REDUCING AGENT” (KOWA COMPANY, LTD., priority 2005, published 2015).

The structures appear in SMILES notation. Like-named read-outs stand apart in the source and are kept apart here.

As for `O=C(NCCCOc1ccc2[nH]c(=O)ccc2c1)N(C1CC1)[C@@H]1CCCC[C@H]1O` [K-134, (−)-6-[3[3-cyclopropyl-3-[(1R, 2R)-2-hydroxycyclohexyl]ureido]-propoxy]-2-(1H)-quinolinone], the “hypotriglyceridemic effect in vivo” value in assay [1] is listed as “little hypotriglyceridemic effect”.

With `O=C1CCc2cc(OCCCCc3nnnn3C3CCCCC3)ccc2N1` [cilostazol], the hypotriglyceridemic effect entry in assay [2] is listed as “unstable”; in assay [3] it was “hypotriglyceridemic effect is reported”. In addition, in assay [1], the “hypotriglyceridemic effect in vivo” value was “little hypotriglyceridemic effect”. The TG level result in assay [4] (4-week administration in a subject) was “lowered”; in assay [4] (24-week administration) it was “return to former value after transient elevation”.

On to `O=C(O)C[C@H](O)C[C@H](O)/C=C/c1c(C2CC2)nc2ccccc2c1-c1ccc(F)cc1` [pitavastatin, (3R, 5S, 6E)-7-[2-cycloropyl-4-(4-fluorophenyl)-3-quinolyl]-3,5-dihydroxy-6-heptenoic acid], for which the “hypotriglyceridemic effect in vivo” value in assay [1] is on record as “extremely weak”.
